Results published in patent US4599424A, “5-substituted thiadiazole ureas and their use as herbicides” (priority 1979, dated 1986).

Tests used:
[1] = tested on: a variety of crops and weed species; experiment: Pre- and post-emergence herbicide tests, overall assessment of TABLES III-VI; type: in vivo; conditions: from data of TABLES III-VI
Description: (§1) All crop and weed species were planted individually in 3" plastic pots containing potting soil. Four seeds each of corn, cotton, and snapbeans were seeded to a depth equal to the diameter of the seed. All other species were surface seeded and sprinkled with screened soil in an amount sufficient to cover the seed. Immediately after planting, all pots were watered by sub-irrigation in greenhouse trays. Pots for the pre-emergence phase were seeded one day before treatment.
(§2) Planting dates for the post-emergence phase were varied so that all seedlings would reach the desired stage of development simultaneously. The proper stage of seedling development for treatment in the post-emergence phase is as follows:
(§3) Compounds were tested at rates of application equivalent to 8 lbs. of actual compound per acre in a spray volume of 38 gallons per acre. Spray hood constants required to deliver the above volume are as follows:
(§4) Two weeks after treatment, pre- and post-emergence injury or control was visually rated, and the results were as shown in the following tables. Pre-emergence data are provided in TABLE III and post-emergence data are provided in TABLE IV, for compounds having the formula illustrated in TABLE I. Correspondingly, pre-emergence and post-emergence data, respectively, are set forth in TABLES V AND VI, for compounds having the formula illustrated in TABLE II.
Typical of such compounds are: 1, 2, 5, 26, 36, and 37.

Cotton (CT) = experiment: Pre-emergence herbicide test, cotton; type: in vivo, Gossypium hirsutum var. DPL smooth leaf; conditions: Gossypium hirsutum, pre-emergence, 336 h, 4 lb/acre, two weeks
Description: Cotton (CT)--Gossypium hirsutum var. DPL smooth leaf
as §1, §3
(§5) Formulations for spray applications were prepared in 50 ml volumes with the following three components:
(§6) Formulations for the 4 lbs/acre rate were prepared by adjusting the amount of active ingredient accordingly.
(§7) Spray applications were made in a hood containing a removable belt and fixed spray nozzle. For passage through the spray hood, one pot of each specie (pre-emergence phase) was placed on the rear half of the flat. Treatments were removed to the greenhouse after spraying. Watering during the observation period was done only by sub-irrigation.
as §4

Crabgrass (CG) = experiment: Post-emergence herbicide test, crabgrass; type: in vivo, Digitaria sanguinalis; conditions: Digitaria sanguinalis, post-emergence, 336 h, 4 lb/acre, two weeks
Description: Crabgrass (CG)--Digitaria sanguinalis
as §1, §2
Spray hood constants required to deliver the above volume are as follows:
Formulations for spray applications were prepared in 50 ml volumes with the following three components: […]
as §7, §4

Corn (CN) = experiment: Post-emergence herbicide test, corn; type: in vivo, Zea mays; conditions: Zea mays, post-emergence, 336 h, 4 lb/acre, two weeks
Description: as §1, §2, §3, §5, §6, §7, §4

SMILES | herbicidal effectiveness and selectivity (in words) [1] | other results
Cc1nnc(NC(=O)N(C)C)s1 [Example 19] | converse of this relationship | 
CN(C)C(=O)Nc1nnc(C(F)(F)F)s1 [Example 2, 1,1-Dimethyl-3-[5-Trifluoromethyl-2-(1,3,4-Thiadiazolyl)]Urea] | extremely effective | 
O=C(Nc1ccc(Cl)cc1)Nc1nnc(C(F)(F)F)s1 [Example 15] | more selective | 
CCc1nnc(NC(=O)N(C)C)s1 [Example 20] | more selective | 
CNC(=O)Nc1nnc(SC)s1 [Example 26] | extremely effective | 
CNC(=O)Nc1nnc(COC)s1 [Example 25] | more selective | 
O=C(Nc1ccc(Cl)c(Cl)c1)Nc1nnc(C(F)(F)F)s1 [Example 16] | more selective | 
CNC(=O)Nc1nnc(-c2cccc(C(F)(F)F)c2)s1 [Example 73] |  | pest or weed control at 4483.4 g/ha (Cotton (CT)): 10%; pest or weed control at 4483.4 g/ha (Crabgrass (CG)): 80%
CCN(C(=O)NC)c1nnc(C(F)(F)F)s1 [Example 37] | extremely effective | pest or weed control at 4483.4 g/ha (Corn (CN)): 30%
CSc1nnc(N(C)C(=O)N(C)C)s1 [Example 5, 1,1,3-trimethyl-3-[5-methylthio-2-(1,3,4-thiadiazolyl)]urea] | extremely effective | 
